Here are results for 19 molecules from US20230117034A1, “PYRAZOLOTRIAZINES” (Bayer Aktiengesellschaft, priority 2019, published 2023).

Molecules are shown by their SMILES.

The target of one experiment is T1, CDK2/CycE (Homo sapiens, UniProt P24941).
T1 construct: purchased ProQinase GmbH (Freiburg, Germany); host or cells: insect cells (Sf9)
The experiment can be described thus: CDK2/CycE kinase assay (TR-FRET, 2 mM ATP). Format: biochemical. Conditions: 2 mM ATP (high ATP); median; read-out: CDK2/CyclinE, 2 mM ATP (high ATP), IC50 (median). The essentials: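 GST-tagged human CDK2 and CycE from Sf9 cells, about 10 ng/ml, pre-incubated 15 min at 22 °C with compound in Tris/HCl pH 8.0 buffer. Reaction with 2 mM ATP and 0.75 µM biotinylated peptide for 25 min at 22 °C. Phospho-RB antibody TR-FRET (665/620 nm ratio) read after 1 h; data normalised to no-inhibitor and no-enzyme controls.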
On the technique in general: TR-FRET usually uses a lanthanide donor and a delayed reading to cut background.

For experiment [1], the system named is CAL-120, human breast adenocarcinoma cells. Put plainly: Proliferation assay CAL-120 (crystal violet, 4 days). Conditions: Homo sapiens, CAL-120, 96 h, CAL-120 cells, median, read-out: Prolif-CAL-120, IC50-[mol/l] (median). It counts as cell-based. The essentials: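 Cells seeded at 4,000/well in medium with 10% FCS; after 24 h, compounds added at 0.01-10 µmol/L (0.1% DMSO) for 4 days. Glutaraldehyde-fixed, crystal violet-stained, absorbance at 595 nm normalized to zero-point plate (0%) and untreated cells (100%); IC50 by 4-parameter fit.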

The target of experiment [2] is T2, CDK12 (nuclear staining in CAL-120 cells) (Homo sapiens, UniProt Q9NYV4).
T2 construct: endogenous in cells; host or cells: CAL-120 human breast cancer cells (DSMZ ACC 459)
The experiment can be described thus: CDK12 nuclear protein level: immunofluorescence/high content analysis (CAL-120). Format: cell-based. The conditions noted are these: for DC50: CAL-120 cells, 24 h, immunofluorescence, 50% reduction of nuclear CDK12 staining intensity, median, read-out: CDK12 degradation IF, DC50- [mol/l] (median); for (IC50 CDK12 high ATP) to (Degradation DC50 CDK12) ratio: ratio of IC50 CDK12 high ATP kinase assay to DC50 CDK12 degradation (IF, CAL-120). The essentials: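 CAL-120 cells were treated with compound for 24 h at 37 °C, fixed with PFA and immunostained for CDK12. Nuclear CDK12 intensity was quantified by automated image analysis and normalized to DMSO and control. DC50 is the concentration giving 50% reduction of nuclear staining.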

T2 sequence (Q9NYV4 whole entry): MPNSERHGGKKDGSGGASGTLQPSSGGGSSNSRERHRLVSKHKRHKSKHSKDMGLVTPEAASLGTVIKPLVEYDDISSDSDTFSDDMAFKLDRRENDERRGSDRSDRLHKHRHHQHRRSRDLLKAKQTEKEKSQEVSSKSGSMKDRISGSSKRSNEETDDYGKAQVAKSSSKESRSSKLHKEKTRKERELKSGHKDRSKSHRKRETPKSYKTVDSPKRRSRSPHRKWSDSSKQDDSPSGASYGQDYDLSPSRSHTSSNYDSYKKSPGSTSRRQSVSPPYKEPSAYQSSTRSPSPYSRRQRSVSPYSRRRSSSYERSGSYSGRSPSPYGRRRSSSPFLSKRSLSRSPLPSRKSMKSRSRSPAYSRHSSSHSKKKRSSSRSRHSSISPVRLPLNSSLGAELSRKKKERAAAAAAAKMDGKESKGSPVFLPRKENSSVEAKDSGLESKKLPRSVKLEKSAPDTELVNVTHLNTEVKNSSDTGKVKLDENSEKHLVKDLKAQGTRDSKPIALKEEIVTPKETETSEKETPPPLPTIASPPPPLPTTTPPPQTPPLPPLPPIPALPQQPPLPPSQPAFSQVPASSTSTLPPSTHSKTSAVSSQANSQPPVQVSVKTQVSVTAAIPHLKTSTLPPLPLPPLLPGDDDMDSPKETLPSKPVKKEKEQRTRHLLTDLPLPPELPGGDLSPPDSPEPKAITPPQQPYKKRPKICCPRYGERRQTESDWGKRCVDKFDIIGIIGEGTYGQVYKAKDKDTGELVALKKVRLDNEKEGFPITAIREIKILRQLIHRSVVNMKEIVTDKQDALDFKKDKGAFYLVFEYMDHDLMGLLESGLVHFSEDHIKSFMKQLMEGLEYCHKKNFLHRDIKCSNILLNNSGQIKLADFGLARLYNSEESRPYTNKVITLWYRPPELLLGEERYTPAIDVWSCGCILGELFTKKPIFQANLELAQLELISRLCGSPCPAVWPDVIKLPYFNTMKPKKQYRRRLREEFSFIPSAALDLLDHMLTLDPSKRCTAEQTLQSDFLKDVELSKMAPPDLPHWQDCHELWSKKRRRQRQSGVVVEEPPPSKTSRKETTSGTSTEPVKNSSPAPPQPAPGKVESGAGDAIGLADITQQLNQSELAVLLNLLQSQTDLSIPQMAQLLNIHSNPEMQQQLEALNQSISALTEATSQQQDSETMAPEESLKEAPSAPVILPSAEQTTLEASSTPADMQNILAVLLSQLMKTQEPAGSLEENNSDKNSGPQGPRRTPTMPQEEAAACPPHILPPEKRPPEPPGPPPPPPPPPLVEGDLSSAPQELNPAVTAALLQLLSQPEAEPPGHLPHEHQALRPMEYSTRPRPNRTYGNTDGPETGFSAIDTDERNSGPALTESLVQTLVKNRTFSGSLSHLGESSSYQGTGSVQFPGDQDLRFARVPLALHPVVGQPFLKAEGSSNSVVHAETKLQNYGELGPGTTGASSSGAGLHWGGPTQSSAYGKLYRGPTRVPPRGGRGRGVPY
T2 sequence (O75909 whole entry partner): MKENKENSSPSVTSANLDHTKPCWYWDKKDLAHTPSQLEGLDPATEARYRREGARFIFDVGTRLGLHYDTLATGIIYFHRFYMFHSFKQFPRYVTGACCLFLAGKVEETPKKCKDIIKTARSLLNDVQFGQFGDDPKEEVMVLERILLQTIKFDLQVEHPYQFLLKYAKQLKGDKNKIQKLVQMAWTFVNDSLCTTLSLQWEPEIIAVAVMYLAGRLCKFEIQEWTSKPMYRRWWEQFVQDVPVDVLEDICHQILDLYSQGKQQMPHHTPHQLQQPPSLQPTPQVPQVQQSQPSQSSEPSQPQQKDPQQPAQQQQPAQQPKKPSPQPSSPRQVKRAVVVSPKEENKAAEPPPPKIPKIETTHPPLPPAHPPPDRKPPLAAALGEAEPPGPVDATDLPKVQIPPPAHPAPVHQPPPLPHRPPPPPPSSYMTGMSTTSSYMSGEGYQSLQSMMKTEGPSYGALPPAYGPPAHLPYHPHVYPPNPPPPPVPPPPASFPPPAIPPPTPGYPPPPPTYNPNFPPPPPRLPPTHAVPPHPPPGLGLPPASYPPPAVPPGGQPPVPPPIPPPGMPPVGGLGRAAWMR

Take `Brc1cnn2c(NCc3nc4ccccc4[nH]3)nc(N3C[C@H]4CC[C@@H]3CN4)nc12` (single isomer, unassigned) [Example 316, N-[(1H-benzimidazol-2-yl)methyl]-8-bromo-2-{[1R or S-(1R*4R*)]-2,5-diazabicyclo[2.2.2]octan-2-yl}pyrazolo[1,5-a][1,3,5]triazin-4-amine]: at CDK2/CycE, the IC50 was determined as 284 nM. In addition, in experiment [1], the IC50 came out at 7.16 nM. Besides, in experiment [2], the DC50 is 5.62 nM and the “(IC50 CDK12 high ATP) to (Degradation DC50 CDK12) ratio” value is listed as 519.
Consider `Brc1cnn2c(NCc3nnc(-c4ccccc4)[nH]3)nc(N3CCOCC3)nc12` [Example 24, 8-bromo-2-(morpholin-4-yl)-N-[(5-phenyl-4H-1,2,4-triazol-3-yl)methyl]pyrazolo[1,5-a][1,3,5]triazin-4-amine], for which, at CDK2/CycE, the IC50 was determined as 2320 nM. Moreover, the IC50 in experiment [1] was found to be 35.7 nM. In addition, in experiment [2], the DC50 stood at 7.78 nM and the “(IC50 CDK12 high ATP) to (Degradation DC50 CDK12) ratio” value is given as 564.
On to `Fc1ccc2[nH]c(CNc3nc(N4CCOCC4)nc4c(C5CCCC5)cnn34)nc2c1F` [Example 262, 8-cyclopentyl-N-[(4,5-difluoro-1H-benzimidazol-2-yl)methyl]-2-(morpholin-4-yl)pyrazolo[1,5-a][1,3,5]triazin-4-amine], for which the IC50 on CDK2/CycE is more than 20000 nM. Further, the IC50 in experiment [1] came to 60.9 nM. Also, in experiment [2], the DC50 was 11.4 nM and the “(IC50 CDK12 high ATP) to (Degradation DC50 CDK12) ratio” value is more than 500.
For `NC12CC1CN(c1nc(NCc3nc4ccccc4[nH]3)n3ncc(Br)c3n1)C2` (centres unmarked) [Example 258, 2-(1-amino-3-azabicyclo[3.1.0]hexan-3-yl)-N-(1H-benzimidazol-2-ylmethyl)-8-bromo-pyrazolo[1,5-a][1,3,5]triazin-4-amine], the IC50 on CDK2/CycE amounted to 3100 nM. Further, the IC50 in experiment [1] is 27.9 nM. For the same molecule, in experiment [2], the DC50 turned out to be 3.79 nM and the “(IC50 CDK12 high ATP) to (Degradation DC50 CDK12) ratio” value was 1239.
`CCNC1CCN(c2nc(NCc3nc4ccccc4[nH]3)n3ncc(Br)c3n2)CC1` [Example 300]: at CDK2/CycE, the IC50 was more than 19700 nM. Moreover, the IC50 in experiment [1] was determined as 16.2 nM. In experiment [2], the DC50 worked out at 17.9 nM and the “(IC50 CDK12 high ATP) to (Degradation DC50 CDK12) ratio” value is on record as more than 1120.
As to `C[C@@]1(O)CCN(c2nc(NCc3nc4ccccc4[nH]3)n3ncc(Br)c3n2)C1` (single isomer, unassigned) [Example 281, (3R or S)-1-(4-{[(1H-benzimidazol-2-yl)methyl]amino}-8-bromopyrazolo[1,5-a][1,3,5]triazin-2-yl)-3-methylpyrrolidin-3-ol], the IC50 on CDK2/CycE was found to be 3280 nM. Besides, the IC50 in experiment [1] stood at 85.4 nM. For the same molecule, in experiment [2], the DC50 came out at 40.3 nM and the “(IC50 CDK12 high ATP) to (Degradation DC50 CDK12) ratio” value is reported as more than 419.
Take `CN(CC(C)(C)O)c1nc(NCc2nc3c(F)cccc3[nH]2)n2ncc(C3CC3)c2n1` [Example 295, 1-[(8-cyclopropyl-4-{[(4-fluoro-1H-benzimidazol-2-yl)methyl]amino}pyrazolo[1,5-a][1,3,5]triazin-2-yl)(methyl)amino]-2-methylpropan-2-ol]: the IC50 on CDK2/CycE was found to be 2060 nM. Also, the IC50 in experiment [1] is 7.25 nM. Further, in experiment [2], the DC50 came out at 3.52 nM and the “(IC50 CDK12 high ATP) to (Degradation DC50 CDK12) ratio” value came to 235.
For the molecule `Fc1ccc2[nH]c(CNc3nc(N4CCOCC4)nc4c([C@@H]5CC5(F)F)cnn34)nc2c1` (single isomer, unassigned) [Example 315, 8-[(1R or S)-2,2-difluorocyclopropyl]-N-[(5-fluoro-1H-benzimidazol-2-yl)methyl]-2-(morpholin-4-yl)pyrazolo[1,5-a][1,3,5]triazin-4-amine], on CDK2/CycE, the IC50 was more than 20000 nM. The IC50 in experiment [1] worked out at 38.4 nM. In experiment [2], the DC50 was 33.9 nM and the “(IC50 CDK12 high ATP) to (Degradation DC50 CDK12) ratio” value is reported as more than 581.
As to `c1ccc2[nH]c(CNc3nc(N4CCOCC4)nc4c(C5CCCC5)cnn34)nc2c1` [Example 244, N-[(1H-benzimidazol-2-yl)methyl]-8-cyclopentyl-2-(morpholin-4-yl)pyrazolo[1,5-a][1,3,5]triazin-4-amine], the IC50 was more than 20000 nM on CDK2/CycE and 218 nM in experiment [1]. In experiment [2], the DC50 came to 101 nM.
Turning to `Fc1ccc2[nH]c(CNc3nc(N4CCOCC4)nc4c(C5CCC5)cnn34)nc2c1F` [Example 264, 8-cyclobutyl-N-[(4,5-difluoro-1H-benzimidazol-2-yl)methyl]-2-(morpholin-4-yl)pyrazolo[1,5-a][1,3,5]triazin-4-amine], the IC50 at CDK2/CycE was more than 20000 nM. Further, the IC50 in experiment [1] was 8.7 nM. In experiment [2], the DC50 stood at 3.55 nM and the “(IC50 CDK12 high ATP) to (Degradation DC50 CDK12) ratio” value came to 627.
Consider `Brc1cnn2c(NCc3nc4ccccc4[nH]3)nc(N3C[C@@H]4C[C@H]3CN4)nc12` [Example 270, N-[(1H-benzimidazol-2-yl)methyl]-8-bromo-2-[(1S,4S)-2,5-diazabicyclo[2.2.1]heptan-2-yl]pyrazolo[1,5-a][1,3,5]triazin-4-amine], for which, on CDK2/CycE, the IC50 was found to be 1790 nM. For the same molecule, the IC50 in experiment [1] came out at 6.92 nM. Also, in experiment [2], the DC50 came out at 1.71 nM and the “(IC50 CDK12 high ATP) to (Degradation DC50 CDK12) ratio” value is reported as 8023.
For `N[C@@H]1[C@@H]2C[C@H]1CN(c1nc(NCc3nc4ccccc4[nH]3)n3ncc(Br)c3n1)C2` [Example 289, 2-[(1R,5S,6s)-6-amino-3-azabicyclo[3.1.1]heptan-3-yl]-N-[(1H-benzimidazol-2-yl)methyl]-8-bromopyrazolo[1,5-a][1,3,5]triazin-4-amine] the same measures were 5290 nM, 3.08 nM, 3.13 nM and 2240.
`COc1ccc2[nH]c(CNc3nc(N4CCOCC4)nc4c(C(F)(F)F)cnn34)nc2c1` [Example 257, N-[(5-methoxy-1H-benzimidazol-2-yl)methyl]-2-(morpholin-4-yl)-8-(trifluoromethyl)pyrazolo[1,5-a][1,3,5]triazin-4-amine]: on CDK2/CycE, the IC50 was found to be 16100 nM. For the same molecule, the IC50 in experiment [1] amounted to 10.8 nM. In experiment [2], the DC50 came to 3 nM and the “(IC50 CDK12 high ATP) to (Degradation DC50 CDK12) ratio” value was determined as 39.
Consider `Fc1ccc2[nH]c(CNc3nc(N4CCOCC4)nc4c(C5CCOCC5)cnn34)nc2c1F` [Example 276, N-[(4,5-difluoro-1H-benzimidazol-2-yl)methyl]-2-(morpholin-4-yl)-8-(oxan-4-yl)pyrazolo[1,5-a][1,3,5]triazin-4-amine], for which the IC50 at CDK2/CycE is more than 20000 nM. Further, in experiment [1], the IC50 worked out at 165 nM. In experiment [2], the DC50 stood at 38.8 nM and the “(IC50 CDK12 high ATP) to (Degradation DC50 CDK12) ratio” value is given as more than 516.
The like results for `N[C@@H]1CCN(c2nc(NCc3nc4ccccc4[nH]3)n3ncc(Br)c3n2)C1` [Example 250, 2-[(3R)-3-aminopyrrolidin-1-yl]-N-[(1H-benzimidazol-2-yl)methyl]-8-bromopyrazolo[1,5-a][1,3,5]triazin-4-amine] were, in that order, 12800 nM, 3.49 nM, 3.16 nM and 3560.
Consider `FC(F)(F)Cc1cnn2c(NCc3nc4cc(Cl)c(Cl)cc4[nH]3)nc(N3CCOCC3)nc12` [Example 302, N-[(5,6-dichloro-1H-benzimidazol-2-yl)methyl]-2-(morpholin-4-yl)-8-(2,2,2-trifluoroethyl)pyrazolo[1,5-a][1,3,5]triazin-4-amine], for which the results for the IC50 (on CDK2/CycE; in experiment [1]) were more than 20000 nM and 8.98 nM, respectively. In experiment [2], the “(IC50 CDK12 high ATP) to (Degradation DC50 CDK12) ratio” value amounted to 557.
Take `OCC1CN(c2nc(NCc3nc4ccccc4[nH]3)n3ncc(Br)c3n2)C1` [Example 304, [1-(4-{[(1H-benzimidazol-2-yl)methyl]amino}-8-bromopyrazolo[1,5-a][1,3,5]triazin-2-yl)azetidin-3-yl]methanol]: the IC50 at CDK2/CycE is 8430 nM. The IC50 in experiment [1] is 86.7 nM. In experiment [2], the DC50 was 74.6 nM and the “(IC50 CDK12 high ATP) to (Degradation DC50 CDK12) ratio” value amounted to 167.
The like results for `Fc1ccc2[nH]c(CNc3nc(N4CCOCC4)nc4c(C5CC5(F)F)cnn34)nc2c1` (single isomer, unassigned) [Example 314, 8-[(1R or S)-2,2-difluorocyclopropyl]-N-[(5-fluoro-1H-benzimidazol-2-yl)methyl]-2-(morpholin-4-yl)pyrazolo[1,5-a][1,3,5]triazin-4-amine] were, in that order, more than 20000 nM, 13 nM, 8.47 nM and 1171.
For the molecule `c1ccc2[nH]c(CNc3nc(N4C[C@@H]5CCCN[C@@H]5C4)nc4c(C5CC5)cnn34)nc2c1` [Example 249, N-[(1H-benzimidazol-2-yl)methyl]-8-cyclopropyl-2-[(4aS,7aS)-octahydro-6H-pyrrolo[3,4-b]pyridin-6-yl]pyrazolo[1,5-a][1,3,5]triazin-4-amine], the IC50 on CDK2/CycE is more than 20000 nM. The IC50 in experiment [1] was determined as 4.28 nM. In addition, in experiment [2], the DC50 stood at 6.48 nM and the “(IC50 CDK12 high ATP) to (Degradation DC50 CDK12) ratio” value is more than 2626.
